This assay relates to gastric cancer patients. The experiment in a line: Multivariable Cox proportional analysis of overall survival: adjuvant chemotherapy vs surgery only, Yonsei cohort, within each molecular subtype. The assay is classed as in vivo. Particulars: multivariate Cox. From the text:
It has been examined whether the molecular subtype of the present disclosure may predict the response to the systemic therapy. The Yonsei cohort included patients treated prior to establishment of adjuvant chemotherapy as standard of care. Thus, patients who have been treated with one of the following three assisted chemical therapy methods were able to compare patients who have undergone surgery only:
5-Fluorouracil (5-FU) Alone Therapy
5-FU and Platinum Doublet
Treatment of Systemic Therapy of Another Class in Addition to 5-FU
The inventors of the present disclosure performed a multivariable Cox proportional analysis of the overall survival rate, assisted chemical therapy, cancer operation, age, lymphovascular attack and perineuronal attack as covariates within each genetic group.
In Table 3, the hazard ratio (HR) was calculated using age, cancer stage, Lauren type, neural surrounding invasion state, and chemotherapy treatment as a regulator.

Turning to `O=c1[nH]cc(F)c(=O)[nH]1` [5-FU alone, 5-Fluorouracil], the “Hazard Ratio (95% CI)” value is given as 2.25 (0.61, 8.35) (Patient Group 1, VS no-chemotherapy); 0.37 (0.14, 0.99) (Patient Group 2, VS no-chemotherapy); 0.37 (Patient Group 2, VS no-chemotherapy, listed as 5-FU monotherapy); 0.99 (0.41, 2.38) (Patient Group 3, VS no-chemotherapy); 0.73 (0.30, 1.79) (Patient Group 4, VS no-chemotherapy).

Values taken from patent US20240068044A1, “MARKER COMPOSITION FOR PREDICTING PROGNOSIS OF CANCER, METHOD FOR PROGNOSIS OF CANCER AND METHOD FOR PROVIDING INFORMATION FOR DETERMINING STRATEGY OF CANCER TREATMENT” (priority 2021, published 2024).
